Legend:
[1] = molecular target: T1, immunoproteasome from human peripheral blood mononuclear cells (PBMCs), CT-L (β5) activity (Homo sapiens, UniProt P20618+P28062); assay: In vitro proteasome activity assay, immunoproteasome, CT-L (β5); format: biochemical; conditions: for effect on CT-L (chymotrypsin-like) activity of the immunoproteasome (FIG. 5): 1.0 μM, 2 hours; for effect on CT-L activity of the immunoproteasome: at ≤10 μM
T1 construct: purchased Boston Biochem; host or cells: human peripheral blood mononuclear cells (native, purified)
Method: (§1) To determine the anti-proteasome activity of the thiasyrbactins in the in vitro environment, three catalytic activities (β1, β2, β5) of the proteasome were measured as described in Ibarra-Rivera et al., Tetrahedron 67:9950-6 (2011)). […] Purified 20S constitutive proteasome from human erythrocytes or immunoproteasome from human peripheral blood mononuclear cells (PBMCs) (Boston Biochem, Cambridge, Mass.) and luminogenic substrates Z-LRR-Glo, Z-nLPnLD-Glo, and Suc-LLVY-Glo (Promega, Fitchburg, Wis.) specific for the β1, β2, and β5 (also referred to as T-L, C-L, and CT-L) catalytic subunit activities, respectively, were used. Briefly, 2.2 ng/μL of constitutive proteasome and immunoproteosome were incubated with increasing concentration of proteasome inhibitor (0 to 10 μM) in 10 mM HEPES, pH 7.3, for two hours at 37° C. Equal volume of the appropriate luminogenic substrate was added to each reaction and luminescence was measured 10 minutes later using a Multi-Mode Synergy (Biotek, Inc., Winooski, Vt.) plate reader. Assays were done in triplicate (n=3). The Ki-50 values for each catalytic activity were determined for each of the inhibitors using Graphpad Prism 5 software (La Jolla, Calif.) and averaged using Microsoft Excel (Redmond, Wash.).
The thiasyrbactins were evaluated for their ability to inhibit each of the catalytic subunits of the constitutive and immunoproteasomes as well as for cytotoxic activity against neuroblastoma cancer cells. To test the inhibitory activity of 1 (NAM-105), 5 (NAM-93), and 6 (NAM-95), an in vitro assay was performed to test the effect of the thiasyrbactins on the three sub-catalytic activities (i.e., the CT-L, C-L, and T-L activities) of the constitutive proteasome and the immunoproteasome (Table 5).

[2] = molecular target: T2, immunoproteasome from human peripheral blood mononuclear cells (PBMCs), C-L (β1) activity (Homo sapiens, UniProt P28065); assay: In vitro proteasome activity assay, immunoproteasome, C-L (β1); format: biochemical
T2 construct: purchased Boston Biochem; host or cells: human peripheral blood mononuclear cells (native, purified)
Method: as §1, with “Briefly, 2.2 ng/μL of constitutive proteasome and immunoproteosome were incubated with increasing concentration of proteasome inhibitor (0 to 10 μM) in 10 mM HEPES, pH 7.3, for two hours at 37° C.” left out, “Assays were done in triplicate (n=3).” left out
(§2) The thiasyrbactins were evaluated for their ability to inhibit each of the catalytic subunits of the constitutive and immunoproteasomes as well as for cytotoxic activity against neuroblastoma cancer cells. […]

[3] = molecular target: T3, immunoproteasome from human peripheral blood mononuclear cells (PBMCs), T-L (β2) activity (Homo sapiens, UniProt P40306+P49720); assay: In vitro proteasome activity assay, immunoproteasome, T-L (β2); format: biochemical; conditions: 1 μM
T3 construct: purchased Boston Biochem; host or cells: human peripheral blood mononuclear cells (native, purified)
Method: as §1, with “Briefly, 2.2 ng/μL of constitutive proteasome and immunoproteosome were incubated with increasing concentration of proteasome inhibitor (0 to 10 μM) in 10 mM HEPES, pH 7.3, for two hours at 37° C.” left out, “Assays were done in triplicate (n=3).” left out
as §2

[4] = test system: MYCN2 neuroblastoma cells; assay: Cell viability assay (MTS), MYCN2 neuroblastoma cells; format: cell-based, human; conditions: for effect on viability of MYCN2 cells: highest concentration tested (1 μM), 24 hours exposure
Method: (§3) (A) MYCN2, (B) SK—N—Be(2)c, and (C) SK—N—SH neuroblastoma cells were treated with 1 (NAM-105), 5 (NAM-93), or 6 (NAM-95) for 24 hours at three different concentrations (0.01, 0.1, and 1 μM). Bortezomib (BTZ) was included as a control. Cell viability was measured using the MTS reagent as described in the Methods section. Data shown are representative of two independent experiments, each performed in triplicate wells (n=6).
(§4) To determine the effect of the thiasyrbactins proteasome inhibitors on the viability of cancer cells, three different human neuroblastoma (NB) cell lines were used. BTZ was included as a control. SK—N—Be2c, SK—N—SH cells (ATCC, Manassas, Va.) and MYCN2 cells were plated overnight in RPMI media containing 10% heat-inactivated fetal bovine serum (FBS) (Invitrogen, Carlsbad, Calif., USA), supplemented with penicillin (100 U/ml) and streptomycin (100 μg/ml). Cells were cultured at 37° C. in a humidified atmosphere containing 5% CO2 and treated with 0.01, 0.1 and 1 μM proteasome inhibitor for 24 hours. Cell viability was determined using the Cell Titer 96 AQueous One Cell Proliferation Assay (Promega) reagent MTS by measuring absorbance at 490 nm using a Multi-Mode Synergy plate reader as Ibarra-Rivera et al. Assays were done in duplicate with triplicate wells of treatment per experiment (n=6). Data were expressed as the average cell viability relative to untreated control cells using Microsoft Excel™.

[5] = test system: SK—N—Be(2)c neuroblastoma cells; assay: Cell viability assay (MTS), SK—N—Be(2)c neuroblastoma cells; format: cell-based, human; conditions: highest concentration tested (1 μM), 24 hours exposure
Method: as §3
as §4, with “Cells were cultured at 37° C. in a humidified atmosphere containing 5% CO2 and treated with 0.01, 0.1 and 1 μM proteasome inhibitor for 24 hours.” left out

[6] = test system: SK—N—SH neuroblastoma cells; assay: Cell viability assay (MTS), SK—N—SH neuroblastoma cells; format: cell-based, human; conditions: for effect on viability of SK—N—SH cells: highest concentration tested (1 μM), 24 hours exposure
Method: as §3, §4

[7] = test system: ARD multiple myeloma (MM) cells; assay: Cell viability (MTS), ARD multiple myeloma cells; format: cell-based; conditions: Homo sapiens, 24 hours, MTS assay, N=3, read-out: IC-50 cell viability ARD cells
Method: (§5) N=3. Cells were incubated for 24 hours in the presence of 1 (NAM-105), 5 (NAM-93), 6 (NAM-95) or DMSO (control) and cell viability measured using the MTS assay. IC-50s for ARD cells are 4.085±0.865 μM (5, NAM-93), N/A (6, NAM-95), and 1.673±0.337 μM (1, NAM-105). IC-50 for U266 cells are 3.308±0.916 μM (5, NAM-93), N/A (6, NAM-95), and 1.474±0.577 μM (1, NAM-105). N/A; not applicable (50% inhibition not reached at tested concentrations).

[8] = test system: U266 multiple myeloma (MM) cells; assay: Cell viability (MTS), U266 multiple myeloma cells; format: cell-based; conditions: Homo sapiens, U-266; 24 hours, MTS assay, N=3; read-out: IC-50 cell viability U266 cells
Method: as §5

[9] = molecular target: T4, 20S constitutive proteasome from human erythrocytes, CT-L (β5) activity (Homo sapiens, UniProt P20618+P28074); assay: In vitro proteasome activity assay, constitutive proteasome, CT-L (β5); format: biochemical; conditions: 1 μM
T4 construct: purchased Boston Biochem; host or cells: human erythrocytes (native, purified)
Method: as §1, with “Briefly, 2.2 ng/μL of constitutive proteasome and immunoproteosome were incubated with increasing concentration of proteasome inhibitor (0 to 10 μM) in 10 mM HEPES, pH 7.3, for two hours at 37° C.” left out, “Assays were done in triplicate (n=3).” left out
as §2

| Compound | effect on CT-L (chymotrypsin-like) activity of the immunoproteasome (FIG. 5) [1] | effect on CT-L activity of the immunoproteasome [1] | effect on C-L activity of the immunoproteasome [2] | inhibition vs. the trypsin-like activity of the immunoproteasome (screen, FIG. 5) [3] | IC50 [7] [µM] | IC50 [8] [µM] | effect on viability of MYCN2 cells [4] | effect on viability of SK—N—Be(2)c cells [5] | effect on viability of SK—N—SH cells [6] | further results |
| --- | --- | --- | --- | --- | --- | --- | --- | --- | --- | --- |
| CC(C)Cc1ccc([C@H](C)C(=O)N[C@H](C(=O)N[C@H]2CSCCNC(=O)/C=C/[C@H](C)NC2=O)C(C)C)cc1 [Compound 5, (S)-2-((S)-2-(4-Isobutylphenyl)propanamido)-3-methyl-N-((8S,11R,E)-8-methyl-5,10-dioxo-1-thia-4,9-diazacyclododec-6-en-11-yl)butanamide] | stimulate | no effect | no effect | good inhibition | 4.08 ± 0.865 | 3.31 ± 0.916 | minimal effects | minimal effects | minimal effects | – |
| CC(C)C[C@H](NC(=O)[C@H](Cc1ccccc1)NC(=O)c1cnccn1)B(O)O [BTZ, bortezomib, reference compound] | – | – | – | – | – | – | – | – | – | cytotoxic effects in MYCN2 cells ([4]; 0.1-1 μM, 24 hours): strong cytotoxic effects; cytotoxic effects in SK—N—SH cells ([6]; 0.1-1 μM, 24 hours): strong cytotoxic effects |
| CCCCCCCCCCCCNC(=O)N[C@H](C(=O)N[C@H]1C[S+]([O-])CCNC(=O)/C=C/[C@H](C)NC1=O)C(C)C (stereo partly drawn) [Compound 2, (2S)-2-(3-Dodecylureido)-3-methyl-N-((8S,11R,E)-8-methyl-1-oxido-5,10-dioxo-1-thia-4,9-diazacyclododec-6-en-11-yl)butanamide] | – | – | – | – | – | – | minimal effects | minimal effects | minimal effects | – |

Continued, in another order:

| effect on CT-L (chymotrypsin-like) activity of the immunoproteasome (FIG. 5) [1] | effect on CT-L activity of the immunoproteasome [1] | effect on C-L activity of the immunoproteasome [2] | inhibition vs. the trypsin-like activity of the immunoproteasome (screen, FIG. 5) [3] | IC50 [7] [µM] | IC50 [8] [µM] | Compound | effect on viability of MYCN2 cells [4] | effect on viability of SK—N—Be(2)c cells [5] | effect on viability of SK—N—SH cells [6] | further results |
| --- | --- | --- | --- | --- | --- | --- | --- | --- | --- | --- |
| – | no effect | no effect | – | 1.67 ± 0.337 | 1.47 ± 0.577 | CCCCCCCCCCCCNC(=O)N[C@H](C(=O)N[C@H]1CSCCNC(=O)/C=C/[C@H](C)NC1=O)C(C)C [Compound 1, (S)-2-(3-Dodecylureido)-3-methyl-N-((8S,11R,E)-8-methyl-5,10-dioxo-1-thia-4,9-diazacyclododec-6-en-11-yl)butanamide] | – | – | – | activity vs. the chymotrypsin-like activity of the constitutive proteasome (screen, FIG. 5) [9]: greatest activity; viability of MYCN2 cells, % of control (DMSO) ([4]; 24 hours, of control (DMSO)): 30-50%; viability of SK—N—SH cells, % of control (DMSO) ([6]; 24 hours, of control (DMSO)): 30-50% |
| stimulate | – | – | good inhibition | – | – | CC(C)[C@H](NC(=O)c1cnccn1)C(=O)N[C@H]1CSCCNC(=O)/C=C/[C@H](C)NC1=O [Compound 6, N—((S)-3-Methyl-1-(((8S,11R,E)-8-methyl-5,10-dioxo-1-thia-4,9-diazacyclododec-6-en-11-yl)amino)-1-oxobutan-2-yl)pyrazine-2-carboxamide] | – | – | – | – |
